Assay results reported in patent US7964624B1, “Inhibitors of serine proteases” (priority 2005, dated 2011).

Tests used:
[1] = biological target: T1, full-length hepatitis C viral protein NS3•4A (Hepatitis C virus genotype 1a, UniProt P27958); test: biochemical; parameters: species or system HCV sub-type strain 1a; conditions: Enzyme Assay 2 (HCV NS3 Peptide Cleavage Assay) activity, apparent Ki class
T1 construct: hexa-histidine (N); made in house; host or cells: Sf9 insect cells (baculovirus, pVL1392)

HCV NS3 protease domain = biological target: T2, HCV NS3 protease domain (Hepatitis C virus genotype 1b, UniProt Q9WMX2); test: biochemical; conditions: Enzyme Assay 1 (HCV NS3 Protease Domain Peptide Cleavage Assay) activity, apparent Ki class
T2 construct: The first 181 amino acids of NS3 (residues 1027-1207 of the viral polyprotein); hexa-histidine (C); made in house; host or cells: E. coli BL21/DE3 pLysS

Structure (SMILES)	Ki [1] [µM]	Ki (HCV NS3 protease domain) [µM]
C=C[C@@H]1C[C@]1(NC(=O)[C@@H]1C[C@]2(CC(c3cccc(Cl)c3)=NO2)CN1C(=O)[C@@H](NC(=O)NC(C)(C)C)C(C)(C)C)C(=O)O [Compound 457]	> 0.5	> 0.5
CCC[C@H](NC(=O)[C@@H]1C[C@]2(CC(c3ccccc3)=NO2)CN1C(=O)[C@@H](NC(=O)CC1CCCCC1)C(C)(C)C)C(=O)C(=O)NC1CC1 [Compound 531]	0.1 to 0.5	0.1 to 0.5
CCC[C@H](NC(=O)[C@@H]1C[C@]2(CC(c3cccc(Cl)c3)=NO2)CN1C(=O)[C@@H](NC(=O)CC1CCCCC1)C(C)(C)C)C(=O)C(=O)NCc1nc2ccccc2[nH]1 [Compound 567]	0.1 to 0.5	> 0.5
CCC[C@H](NC(=O)[C@@H]1C[C@]2(CC(c3cccc(Cl)c3)=NO2)CN1C(=O)[C@@H](NC(=O)CC1CCCCC1)C(C)(C)C)C(=O)C(=O)Nc1ccc(F)c(F)c1 [Compound 573]	> 0.5	> 0.5
CCC[C@H](NC(=O)[C@@H]1C[C@]2(CC(c3ccc(OC)c(C)c3)=NO2)CN1C(=O)[C@@H](NC(=O)CC1CCCCC1)C(C)(C)C)C(=O)C(=O)NC1CC1 [Compound 500]	< 0.1	0.1 to 0.5
CC(C)(C)OC(=O)N[C@H]1CCCCC/C=C\[C@@H]2C[C@@]2(C(=O)NS(=O)(=O)C2CC2)NC(=O)[C@@H]2C[C@]3(CC(C(=O)c4ccccc4)=NO3)CN2C1=O [Compound 163]	< 0.1	< 0.1
CCC[C@H](NC(=O)[C@@H]1C[C@]2(CC(c3cccc(Cl)c3)=NO2)CN1C(=O)[C@@H](NC(C)=O)C(C)(C)C)C(=O)C(=O)NC1CC1 [Compound 12]	< 0.1	0.1 to 0.5
CCC[C@H](NC(=O)[C@@H]1C[C@]2(CC(c3cccc(Cl)c3)=NO2)CN1C(=O)[C@@H](NC(=O)CC1CCCCC1)C(C)(C)C)C(=O)C(=O)N1CCC1 [Compound 79]	< 0.1	0.1 to 0.5
CCC[C@H](NC(=O)[C@@H]1C[C@]2(CC(c3cccc(Cl)c3)=NO2)CN1C(=O)[C@@H](NC(=O)CC1CCCCC1)C(C)(C)C)C(=O)C(=O)NCCC1C(=O)Nc2ccccc21 (stereo partly shown) [Compound 458]	> 0.5	> 0.5
CCC[C@H](NC(=O)[C@@H]1C[C@]2(CC(c3cccc(Cl)c3)=NO2)CN1C(=O)C1=CC(c2cc(OC)ccc2OC)NC(=O)N1)C(=O)C(=O)NC1CC1 (stereo partly shown) [Compound 586]	> 0.5	> 0.5
CCC[C@H](NC(=O)[C@@H]1C[C@]2(CC(c3cccc(Cl)c3)=NO2)CN1C(=O)[C@@H](NC(=O)CC1CCOC(C)(C)C1)C(C)(C)C)C(=O)C(=O)NC1CC1 (stereo partly shown) [Compound 121]	< 0.1	0.1 to 0.5
CCC[C@H](NC(=O)[C@@H]1C[C@]2(CC(c3cccc(Cl)c3)=NO2)CN1C(=O)[C@@H](NC(=O)CC1C[C@@H](C)O[C@@H](C)C1)C(C)(C)C)C(=O)C(=O)NC1CC1 (stereo partly shown) [Compound 442]	< 0.1	0.1 to 0.5
CCC[C@H](NC(=O)[C@@H]1C[C@]2(CC(c3cccc(Cl)c3)=NO2)CN1C(=O)[C@@H](NC(=O)CC1CCCCC1)C(C)(C)C)C(=O)C(=O)NCc1cccc(-n2cccn2)c1 [Compound 298]	0.1 to 0.5	0.1 to 0.5
CCC[C@H](NC(=O)[C@@H]1C[C@]2(CC(c3cccc(Cl)c3)=NO2)CN1C(=O)[C@@H](NC(=O)[C@@H]1C[C@H]1c1ccccc1)C(C)(C)C)C(=O)C(=O)NC1CC1 [Compound 271]	< 0.1	0.1 to 0.5
CCC[C@H](NC(=O)[C@@H]1C[C@]2(CC(c3cc(Cl)c4c(c3)CCC(C)(C)O4)=NO2)CN1C(=O)[C@@H](NC(=O)CC1CCCCC1)C(C)(C)C)C(=O)C(=O)NC1CC1 [Compound 74]	< 0.1	0.1 to 0.5
CCC[C@H](NC(=O)[C@@H]1C[C@]2(CC(c3ccc(C#N)cc3)=NO2)CN1C(=O)[C@@H](NC(=O)CC1CCOCC1)C(C)(C)C)C(=O)C(=O)NC1CC1 [Compound 177]	0.1 to 0.5	> 0.5
CCC[C@H](NC(=O)[C@@H]1C[C@]2(CC(c3cccc(Cl)c3)=NO2)CN1C(=O)[C@@H](NC(=O)Cc1cncc(Br)c1)C(C)(C)C)C(=O)C(=O)NC1CC1 [Compound 339]	< 0.1	0.1 to 0.5
CCC[C@H](NC(=O)[C@@H]1C[C@]2(CC(c3cccc(Cl)c3)=NO2)CN1C(=O)[C@@H](NC(=O)[C@@H]1CCCN1C(=O)c1ccccc1)C(C)(C)C)C(=O)C(=O)NC1CC1 [Compound 26]	< 0.1	0.1 to 0.5
CCC[C@H](NC(=O)[C@@H]1C[C@]2(CC(c3cccc(Cl)c3)=NO2)CN1C(=O)C1(C(N)=O)CC1)C(=O)C(=O)NC1CC1 [Compound 227]	> 0.5	> 0.5
CCC[C@H](NC(=O)[C@@H]1C[C@]2(CC(c3cccc(Cl)c3)=NO2)CN1C(=O)[C@@H](NS(=O)(=O)c1ccc(OC)cc1)C(C)C)C(=O)C(=O)NC1CC1 [Compound 489]	0.1 to 0.5	> 0.5
CCC[C@H](NC(=O)[C@@H]1C[C@]2(CC(c3cccc(Cl)c3)=NO2)CN1C(=O)[C@@H](NC(=O)CC1CCCCC1)C(C)(C)C)C(=O)C(=O)Nc1ccc2c(C)cc(=O)[nH]c2c1 [Compound 181]	> 0.5	> 0.5

Structure (SMILES)	Ki [1] [µM]	Ki (HCV NS3 protease domain) [µM]
CCC[C@H](NC(=O)[C@@H]1C[C@]2(CC(c3cccc(Cl)c3)=NO2)CN1C(=O)[C@@H](NC(=O)CC1CCCCC1)C(C)(C)C)C(=O)C(=O)NC1CCCC1 [Compound 372]	0.1 to 0.5	0.1 to 0.5
CCC[C@H](NC(=O)[C@@H]1C[C@]2(CC(c3cccc(Cl)c3)=NO2)CN1C(=O)[C@@H](NC(=O)CC1CCCCC1)C(C)(C)C)C(=O)C(=O)N1CCC[C@H]1COC [Compound 537]	> 0.5	> 0.5
CCC[C@H](NC(=O)[C@@H]1C[C@]2(CC(c3cccc(Cl)c3)=NO2)CN1C(=O)[C@@H](NC(=O)CC1CCCCC1)C(C)(C)C)C(=O)C(=O)N[C@H](C)c1ccccc1 [Compound 296]	> 0.5	> 0.5
CCC[C@H](NC(=O)[C@@H]1C[C@]2(CC(c3cccc(Cl)c3)=NO2)CN1C(=O)[C@@H](NC(=O)CC1CCCCC1)C(C)(C)C)C(=O)C(=O)NC1(C(=O)OC)CC1 [Compound 399]	> 0.5	> 0.5
COc1cc(OC)c(C2=NO[C@]3(C2)C[C@@H](C(=O)NC(CC2CCC2)C(=O)C(=O)NC2CC2)N(C(=O)[C@@H](NC(=O)CC2CCOCC2)C(C)(C)C)C3)cc1Cl (stereo partly shown) [Compound 282]	0.1 to 0.5	> 0.5
CCCC[C@H](NC(=O)CC1CCCCC1)C(=O)N1C[C@@]2(CC(c3cccc(Cl)c3)=NO2)C[C@H]1C(=O)N[C@@H](CCC)C(=O)C(=O)NC1CC1 [Compound 459]	0.1 to 0.5	> 0.5
CCC[C@H](NC(=O)[C@@H]1C[C@]2(CC(c3cccc(Cl)c3)=NO2)CN1C(=O)[C@@H](NC(=O)CC1CCCCC1)C(C)(C)C)C(=O)C(=O)N1CC[C@@H](NC(C)=O)C1 [Compound 186]	> 0.5	> 0.5
CCC[C@H](NC(=O)[C@@H]1C[C@]2(CC(c3cc(Cl)c4c(c3)CCCN4C)=NO2)CN1C(=O)[C@@H](NC(=O)CC1CCCCC1)C(C)(C)C)C(=O)C(=O)NC1CC1 [Compound 430]	< 0.1	0.1 to 0.5
C=CCOC(=O)N[C@H](C(=O)N1C[C@@]2(CC(c3cccc(Cl)c3)=NO2)C[C@H]1C(=O)N[C@]1(C(=O)O)C[C@H]1C=C)C(C)(C)C [Compound 460]	> 0.5	> 0.5
CCC[C@H](NC(=O)[C@@H]1C[C@]2(CC(c3cccc(Cl)c3)=NO2)CN1C(=O)[C@@H](NC(=O)CC1CCCCC1)C(C)(C)C)C(=O)C(=O)NCc1cccnc1 [Compound 408]	0.1 to 0.5	> 0.5
C=C[C@@H]1C[C@]1(NC(=O)[C@@H]1C[C@]2(CC(CC)=NO2)CN1C(=O)[C@@H](NC(=O)OC1CCCC1)C(C)(C)C)C(=O)NS(=O)(=O)C1CC1 [Compound 438]	0.1 to 0.5	> 0.5
CCC[C@H](NC(=O)[C@@H]1C[C@]2(CC(c3cccc(Cl)c3)=NO2)CN1C(=O)[C@@H](NC(=O)CC1CCCCC1)C(C)(C)C)C(=O)C(=O)NCc1ccc(-n2cccn2)cc1 [Compound 73]	0.1 to 0.5	> 0.5
C=C[C@@H]1C[C@]1(NC(=O)[C@@H]1C[C@]2(CC(c3cccc(Cl)c3)=NO2)CN1C(=O)[C@@H](NC(=O)CC1CCCCC1)C(C)(C)C)C(=O)NS(=O)(=O)C1CC1 [Compound 162]	< 0.1	0.1 to 0.5
CCC[C@H](NC(=O)[C@@H]1C[C@]2(CC(c3cccc(Cl)c3)=NO2)CN1C(=O)[C@@H](NC(=O)CC1CCCCC1)C(C)(C)C)C(=O)C(=O)NCCc1c[nH]c2cc(OC)ccc12 [Compound 69]	0.1 to 0.5	> 0.5
C=CCOC(=O)N[C@H](C(=O)N1C[C@@]2(CC(c3cccc(Cl)c3)=NO2)C[C@H]1C(=O)N[C@]1(C(=O)NS(=O)(=O)C2CC2)C[C@H]1C=C)C(C)(C)C [Compound 130]	< 0.1	0.1 to 0.5
CCC[C@H](NC(=O)[C@@H]1C[C@]2(CC(c3ccccc3C#N)=NO2)CN1C(=O)[C@@H](NC(=O)CC1CCCCC1)C(C)(C)C)C(=O)C(=O)NC1CC1 [Compound 28]	0.1 to 0.5	> 0.5
CCC[C@H](NC(=O)[C@@H]1C[C@]2(CC(c3cc(Cl)c(OC)cc3C)=NO2)CN1C(=O)[C@@H](NC(=O)CC1CCCCC1)C(C)(C)C)C(=O)C(=O)NC1CC1 [Compound 366]	< 0.1	0.1 to 0.5
CCC[C@H](NC(=O)[C@@H]1C[C@]2(CC(c3cccc(Cl)c3)=NO2)CN1C(=O)CN1C(=O)OC[C@@H]1c1ccccc1)C(=O)C(=O)NC1CC1 [Compound 397]	> 0.5	> 0.5
CCC[C@H](NC(=O)[C@@H]1C[C@]2(CC(c3cccc(Cl)c3)=NO2)CN1C(=O)[C@@H](NC(=O)CC1CCCCC1)C(C)(C)C)C(=O)C(=O)NC1CCS(=O)(=O)C1 (stereo partly shown) [Compound 565]	> 0.5	> 0.5
C#CCCC(NC(=O)[C@@H]1C[C@]2(CC(c3cc(Cl)c(OC)cc3OC)=NO2)CN1C(=O)[C@@H](NC(=O)CC1CCOCC1)C(C)(C)C)C(=O)C(=O)NC1CC1 (stereo partly shown) [Compound 510]	< 0.1	0.1 to 0.5
